# According to publication PMC6934184, “Selective DNA-PKcs inhibition extends the therapeutic index of localized radiotherapy and chemotherapy” (The Journal of Clinical Investigation, 2019):
# Biological target: T1, CDK9/cyclin K (Homo sapiens, UniProt P50750)
# T1 construct: purchased Thermo Fisher Scientific (Life Technologies) SelectScreen
# Experiment: SelectScreen LanthaScreen
# Type: binding
# Settings: read-out: % displacement
# How it was run: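 SelectScreen broad panel; activity (Z'LYTE, Adapta) plus binding formats. ATP: Km app for CSF1R Z'LYTE; 10 for CAMK1 Adapta. Readout = % per kinase.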
# T1 sequence (P50750 whole entry): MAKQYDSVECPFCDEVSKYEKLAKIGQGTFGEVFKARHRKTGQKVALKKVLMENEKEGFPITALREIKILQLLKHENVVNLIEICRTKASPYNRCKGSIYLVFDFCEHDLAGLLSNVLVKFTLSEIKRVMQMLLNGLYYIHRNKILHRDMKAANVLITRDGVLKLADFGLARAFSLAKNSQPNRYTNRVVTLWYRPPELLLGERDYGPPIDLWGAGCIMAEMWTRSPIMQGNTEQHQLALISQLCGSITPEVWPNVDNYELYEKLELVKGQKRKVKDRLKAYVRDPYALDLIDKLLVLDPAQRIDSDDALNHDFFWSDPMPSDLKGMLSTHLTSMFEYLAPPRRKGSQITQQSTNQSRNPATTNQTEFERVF
# T1 sequence (O75909 whole entry partner): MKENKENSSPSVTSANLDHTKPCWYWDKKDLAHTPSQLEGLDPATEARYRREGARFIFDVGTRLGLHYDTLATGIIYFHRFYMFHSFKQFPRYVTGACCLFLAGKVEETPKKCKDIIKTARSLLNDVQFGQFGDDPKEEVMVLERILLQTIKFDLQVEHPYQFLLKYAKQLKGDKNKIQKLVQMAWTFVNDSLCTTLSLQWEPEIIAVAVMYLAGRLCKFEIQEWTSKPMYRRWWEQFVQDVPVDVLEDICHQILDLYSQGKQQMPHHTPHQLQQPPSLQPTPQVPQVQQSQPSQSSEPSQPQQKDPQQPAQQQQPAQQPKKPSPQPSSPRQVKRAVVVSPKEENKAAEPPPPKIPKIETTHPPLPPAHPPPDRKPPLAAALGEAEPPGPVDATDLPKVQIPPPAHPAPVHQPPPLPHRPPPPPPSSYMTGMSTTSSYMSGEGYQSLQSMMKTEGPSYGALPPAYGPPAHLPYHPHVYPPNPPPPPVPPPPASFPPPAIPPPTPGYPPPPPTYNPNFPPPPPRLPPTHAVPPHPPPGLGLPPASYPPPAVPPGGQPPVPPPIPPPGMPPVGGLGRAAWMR
compound,measurement,value
CN(C(=O)CN1CCOCC1)c1ccc2sc3c(-c4cccc5c(=O)cc(N6CC7CCC(C6)O7)oc45)cccc3c2c1 [NU5455],inhibition at 1 µM,1%
